Source: PubChem BioAssay AID1963965 (Molecular Pharmacology Branch, DTP, NCI, 2024)

System: 996289-038-R-J1-PDC spheroid viability
Test: Anticancer human tumor 996289-038-R-J1-PDC patient-derived colon adenocarcinoma cell line growth inhibition [PI3K]
Settings: spheroids with HUVEC and MSC; for IC50: curve of first compound; for viability, T/C: stronger effect = lower value; active means viability on the fitted dose curve at most 10% of control; inactive means the rest
Method in brief: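 Tumor cells grown as multi-cell spheroids with HUVEC endothelial cells and MSC fibroblast-like stroma were treated with targeted agents combined with inavolisib, alpelisib, duvelisib or copanlisib. Doses fell in half-log steps from near clinical Cmax, else from 10 microM. Viability was measured.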

[1] = second compound 0.00316 µM, first compound 0.0316 µM
[2] = second compound 0.00316 µM, first compound 0.1 µM
[3] = second compound 0.00316 µM, first compound 0.316 µM
[4] = second compound 0.00316 µM, first compound 1 µM
[5] = second compound 0.00316 µM, first compound 3.16 µM
[6] = second compound 0.00316 µM, first compound 10 µM
[7] = second compound 0.01 µM, first compound 0.0316 µM
[8] = second compound 0.01 µM, first compound 0.1 µM
[9] = second compound 0.01 µM, first compound 0.316 µM
[10] = second compound 0.01 µM, first compound 1 µM
[11] = second compound 0.01 µM, first compound 3.16 µM
[12] = second compound 0.01 µM, first compound 10 µM
[13] = second compound 0.0316 µM, first compound 0.0316 µM
[14] = second compound 0.0316 µM, first compound 0.1 µM
[15] = second compound 0.0316 µM, first compound 0.316 µM
[16] = second compound 0.0316 µM, first compound 1 µM
[17] = second compound 0.0316 µM, first compound 3.16 µM
[18] = second compound 0.0316 µM, first compound 10 µM
[19] = second compound 0.1 µM, first compound 0.0316 µM
[20] = second compound 0.1 µM, first compound 0.1 µM
[21] = second compound 0.1 µM, first compound 0.316 µM
[22] = second compound 0.1 µM, first compound 1 µM
[23] = second compound 0.1 µM, first compound 3.16 µM
[24] = second compound 0.1 µM, first compound 10 µM
[25] = second compound 0.316 µM, first compound 0.0316 µM
[26] = second compound 0.316 µM, first compound 0.1 µM
[27] = second compound 0.316 µM, first compound 0.316 µM
[28] = second compound 0.316 µM, first compound 1 µM
[29] = second compound 0.316 µM, first compound 3.16 µM
[30] = second compound 0.316 µM, first compound 10 µM
[31] = second compound 1 µM, first compound 0.0316 µM
[32] = second compound 1 µM, first compound 0.1 µM
[33] = second compound 1 µM, first compound 0.316 µM
[34] = second compound 1 µM, first compound 1 µM
[35] = second compound 1 µM, first compound 3.16 µM
[36] = second compound 1 µM, first compound 10 µM
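Further: spheroids exposed to compounds for seven days before viability read.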
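Wherever viability, T/C is given: luminescence used as a proxy for viable cell amount; percent viability relative to DMSO vehicle control as 100%.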

C#Cc1c(F)ccc2cc(O)cc(-c3ncc4c(N5CC6CCC(C5)N6)nc(OCC56CCCN5CC(F)C6)nc4c3F)c12 (stereo unspecified) + CC(Nc1ccc2c(c1)OCCn1cc(N3C(=O)OCC3C(F)F)nc1-2)C(N)=O
0.641 µM: IC50 (second compound 0.0316 µM)
1.45 µM: IC50 (second compound 0.00316 µM)
0.169 µM: IC50 (second compound 0.316 µM)
0.859 µM: IC50 (second compound 0.01 µM)
0.0772 µM: IC50 (second compound 1 µM)
inactive: viability, T/C [1] 86% | viability, T/C [2] 81.2% | viability, T/C [3] 67.4% | viability, T/C [4] 52% | viability, T/C [5] 45% | viability, T/C [6] 34.9% | viability, T/C [7] 89% | viability, T/C [8] 80.6% | viability, T/C [9] 57.7% | viability, T/C [10] 52.6% | viability, T/C [11] 39.8% | viability, T/C [12] 41.1% | viability, T/C [13] 87.5% | viability, T/C [14] 83.2% | viability, T/C [15] 59.6% | viability, T/C [16] 42.5% | viability, T/C [17] 44.2% | viability, T/C [18] 30% | viability, T/C [19] 75% | viability, T/C [20] 69.6% | viability, T/C [21] 50.2% | viability, T/C [22] 35.9% | viability, T/C [23] 32% | viability, T/C [24] 26.1% | viability, T/C [25] 72.2% | viability, T/C [26] 57.1% | viability, T/C [27] 40.8% | viability, T/C [28] 33.7% | viability, T/C [29] 29.6% | viability, T/C [30] 21.6% | viability, T/C [31] 56.8% | viability, T/C [32] 48.8% | viability, T/C [33] 39% | viability, T/C [34] 29.3% | viability, T/C [35] 26.4% | viability, T/C [36] 17.9%
0.347 µM: IC50 (second compound 0.1 µM)

CC(Cn1ccc(-c2ccc(C#N)c(Cl)c2)n1)NC(=O)c1cc(C(C)O)[nH]n1 (stereo unspecified) + CC(Nc1ccc2c(c1)OCCn1cc(N3C(=O)OCC3C(F)F)nc1-2)C(N)=O
inactive: viability, T/C [1] 86% | viability, T/C [2] 108% | viability, T/C [3] 98.5% | viability, T/C [4] 112% | viability, T/C [5] 96% | viability, T/C [6] 97.4% | viability, T/C [7] 92.6% | viability, T/C [8] 98.4% | viability, T/C [9] 110% | viability, T/C [10] 100% | viability, T/C [11] 96% | viability, T/C [12] 87.1% | viability, T/C [13] 96.8% | viability, T/C [14] 101% | viability, T/C [15] 89.7% | viability, T/C [16] 93.7% | viability, T/C [17] 93.8% | viability, T/C [18] 79.2% | viability, T/C [19] 78% | viability, T/C [20] 79.4% | viability, T/C [21] 89.1% | viability, T/C [22] 82.7% | viability, T/C [23] 97.1% | viability, T/C [24] 76.7% | viability, T/C [25] 70.2% | viability, T/C [26] 73.2% | viability, T/C [27] 66.7% | viability, T/C [28] 73.5% | viability, T/C [29] 66.7% | viability, T/C [30] 72% | viability, T/C [31] 55% | viability, T/C [32] 55.1% | viability, T/C [33] 68.9% | viability, T/C [34] 63.1% | viability, T/C [35] 58% | viability, T/C [36] 58.6%
> 10 µM: IC50 (second compound 0.00316 µM) | IC50 (second compound 0.01 µM) | IC50 (second compound 0.0316 µM) | IC50 (second compound 0.1 µM) | IC50 (second compound 0.316 µM) | IC50 (second compound 1 µM)

CC1(C)CCC(Nc2ncc(C(F)(F)F)c(-c3c[nH]c4c(P(C)(C)=O)c(C#N)ccc34)n2)CN1 (stereo unspecified) + CC(Nc1ccc2c(c1)OCCn1cc(N3C(=O)OCC3C(F)F)nc1-2)C(N)=O
4.91 µM: IC50 (second compound 0.316 µM)
6.89 µM: IC50 (second compound 0.01 µM)
4.66 µM: IC50 (second compound 1 µM)
5.85 µM: IC50 (second compound 0.1 µM)
6.69 µM: IC50 (second compound 0.0316 µM)
6.75 µM: IC50 (second compound 0.00316 µM)
inactive: viability, T/C [1] 111% | viability, T/C [2] 90.6% | viability, T/C [3] 81% | viability, T/C [4] 87.3% | viability, T/C [5] 97.1% | viability, T/C [6] 27.4% | viability, T/C [7] 110% | viability, T/C [8] 93% | viability, T/C [9] 81.7% | viability, T/C [10] 94.1% | viability, T/C [11] 89.7% | viability, T/C [12] 31.1% | viability, T/C [13] 99.3% | viability, T/C [14] 83.6% | viability, T/C [15] 85.5% | viability, T/C [16] 81.9% | viability, T/C [17] 88.5% | viability, T/C [18] 29.7% | viability, T/C [19] 89% | viability, T/C [20] 76.3% | viability, T/C [21] 81.2% | viability, T/C [22] 82.2% | viability, T/C [23] 81% | viability, T/C [24] 22.9% | viability, T/C [25] 73.9% | viability, T/C [26] 72% | viability, T/C [27] 76.6% | viability, T/C [28] 65.8% | viability, T/C [29] 69% | viability, T/C [30] 19.9% | viability, T/C [31] 58.8% | viability, T/C [32] 73.8% | viability, T/C [33] 63.7% | viability, T/C [34] 63.3% | viability, T/C [35] 66.8% | viability, T/C [36] 19.9%
